# Where two headings read alike, the source gives them in different places.
# Experiments:
# [1] = test system: male mice on a 55° C. hot plate; test: Hot plate test; format: in vivo, mouse (male); conditions: for Analgesic activity: 1.5 mg/kg; for change in vivo at 1.5 mg/kg: Mus musculus, ip, 0.5 h, 1.5 mg/kg i.p., read-out: increase in HP-time (%)
# Procedure: (§1) The analgesic activity of the compounds of formula (I) was tested in the following manner: […]
# Test compounds or saline were given i.p. to male mice. Thirty minutes thereafter, the time for which the mice remained on a 55° C. plate was recorded. The results are expressed as compared to saline.
# [2] = Preventive effect on formation of indomethacin-induced ulcers; format: in vivo, rat (female Sprague-Dawley); conditions: rat, in vivo, iv; LD50 (mouse, i.v.) / ED50 (ulcer); read-out: Therapeutic Index
# [3] = test system: indomethacin-induced ulcers; test: as above; format: in vivo, rat (female Sprague-Dawley); conditions: for ED50: Rattus norvegicus, ip, 4 h, read-out: ED50 (ulcer prevention)
# [4] = Acute toxicity in female NMRI mice, i.v.; conditions: in vivo, iv, mouse
# Procedure: Acute toxicity was determined by using female mice of NMRI-Strain with an age of about 7 months and weighing 30-40 g. The administration of the test compound was i.v.
# [5] = test system: carrageenan-induced oedema; test: Inhibition of carrageenan-induced oedema; format: in vivo, rat; conditions: for inhibition in vivo at 100 mg/kg: po, read-out: inhibition carrageenan-induced oedema (%);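 as to Anti-inflammatory activity: ++ means marked effect and + means moderate effect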
# Procedure: The anti-inflammatory activity of the compounds of the invention was determined by inhibition of the carrageenan induced oedema in rats by the compounds examined (Winter C. A. et al., Proc. Soc. Exp. Biol. Med. 111:544, 1962).
# [6] = test system: acetic acid-induced writhing; test: Writhing test (acetic acid); format: in vivo, rat;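 as to Analgesic activity: ++ means marked effect and + means moderate effect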
# Procedure: as §1
# The compounds studied and saline were administered p.o. to rats. Forty-five minutes later, 1 ml of 1% acetic acid was administered i.p. The number of writhes was recorded in the following 25 minute period (Koster et al: Fed. Proc. 18:412, 1959).
# [7] = test system: anesthetized Sprague-Dawley rats (blood pressure, pulse frequency); test: Blood pressure and pulse frequency in anesthetized normal-weight Sprague-Dawley rats (i.v.); format: in vivo, rat (Sprague-Dawley); conditions: for minimal effective dose: Rattus norvegicus, iv; for anti-hypertensive effect: tested as above
# Procedure: The anti-hypertensive properties of the imidazole derivatives of the present invention have been determined according to the following procedure. Sprague-Dawley rats of normal weight were first anesthetized with urethane. After this, the femoral artery was connected by way of a polyethylene tube with a blood pressure transducer. The test substance was then injected into the femoral vein and the blood pressure and the pulse frequency were registered with a recorder. The minimum doses producing a significant change were found, i.e. ± at least 20% in the case of blood pressure, and ± at least 3% in the case of pulse frequency.
# [8] = read-out: Blood Pressure Minimum Dose having a significant lowering effect
# [9] = read-out: Pulse frequency Minimum Dose having a significant lowering effect
SMILES,LD50 [4],Anti-inflammatory activity ([5]; 100 mg/kg p.o. in the rat),inhibition in vivo at 100 mg/kg ([5]; Rattus norvegicus),Analgesic activity ([6]; 100 mg/kg),W-number ([6]; 100 mg/kg p.o.),further results
"Cc1ccc(Cc2c[nH]cn2)c(C)c1 [4-(2',4'-dimethylbenzyl)imidazole, 4-(2',4'-Dimethylbenzyl)imidazole]",65 mg/kg,++,76%,++,0,Analgesic activity [1]: +; change in vivo at 1.5 mg/kg [1]: 200%; selectivity ratio [2]: 2170; ED50 [3]: 0.03 mg/kg
"Clc1cccc(Cl)c1Cc1cnc[nH]1 [4-(2',6'-dichlorobenzyl)imidazole, 4-(2',6'-Dichlorobenzyl)imidazole]",48 mg/kg,–,–,–,–,"selectivity ratio [2]: 1600; ED50 [3]: 0.03 mg/kg; minimal effective dose [7, 8]: 0.03 to 0.1 mg/kg; minimal effective dose [7, 9]: 0.03 to 0.1 mg/kg"
"CCc1cccc(CC)c1Cc1c[nH]cn1 [4-(2',6'-diethylbenzyl)imidazole]",–,–,–,–,–,"minimal effective dose [7, 8]: 0.03 to 0.2 mg/kg; minimal effective dose [7, 9]: 0.03 mg/kg"
"Cc1cccc(C)c1C(=O)c1c[nH]cn1 [4-(2',6'-dimethylbenzoyl)imidazole, 4-(2',6'-Dimethylbenzoyl)imidazole]",> 100 mg/kg,–,–,–,–,prevention of the formation of ulcers ([3]; 10 mg/kg): prevented them partially; prevention of the formation of ulcers ([3]; 20 mg/kg): prevented completely the formation of ulcers; anti-hypertensive effect [7]: only a very slight anti-hypertensive effect
"CCc1ccccc1Cc1c[nH]cn1 [4-(2'-ethylbenzyl)imidazole, 4-(2'-Ethylbenzyl)imidazole]",34 mg/kg,–,–,–,–,Analgesic activity [1]: +; change in vivo at 1.5 mg/kg [1]: 150%; selectivity ratio [2]: 6800; ED50 [3]: 0.005 mg/kg
"Cc1ccccc1Cc1c[nH]cn1 [4-(2'-methylbenzyl)imidazole, 4-(2'-Methylbenzyl)imidazole]",25 mg/kg,–,–,–,–,"Analgesic activity [1]: +; change in vivo at 1.5 mg/kg [1]: 200%; selectivity ratio [2]: 5000; prevention of the formation of ulcers ([3]; 5 μg/kg i.p.): complete prevention of the formation of ulcers; ED50 [3]: 0.005 mg/kg; lowering of blood pressure ([7]; 0.5 mg/kg i.v., 30 minutes after administration): 10%; minimal effective dose [7, 8]: 0.01 to 0.1 mg/kg; minimal effective dose [7, 9]: 0.1 to 1 mg/kg"
"Cc1ccc(C(=O)c2c[nH]cn2)cc1 [4-(4'-methylbenzoyl)imidazole, 4-(4'-Methylbenzoyl)imidazole]",–,+,–,–,–,inhibition in vivo at 100 mg/kg ([5]; 100 mg/kg p.o. in the rat): 40%
"Cc1cccc(C(O)c2c[nH]cn2)c1C (stereo not drawn) [4-[α-(2',3'-Dimethylphenyl)]hydroxymethylimidazole]",–,+,52%,++,0,Analgesic activity [1]: ++; change in vivo at 1.5 mg/kg [1]: 400%
"Cc1ccc(C(O)c2c[nH]cn2)c(C)c1 (stereo not drawn) [4-[α-(2',4'-Dimethylphenyl)]hydroxymethylimidazole]",–,–,–,+,1.3,–
"CCOC(c1c[nH]cn1)c1c(C)cccc1C (stereo not drawn) [4-[α-(2',6'-Dimethylphenyl)]ethoxymethylimidazole]",45 mg/kg,+,35%,++,0.6,prevention of the formation of ulcers ([3]; 0.5 mg/kg): prevented them partly; prevention of the formation of ulcers ([3]; 5 mg/kg): completely prevented the formation of ulcers; anti-hypertensive effect [7]: only a very slight anti-hypertensive effect
"COC(c1c[nH]cn1)c1c(C)cccc1C (stereo not drawn) [4-[α-(2',6'-Dimethylphenyl)]methoxymethylimidazole]",–,+,40%,+,13,–
"CCc1cccc(CC)c1C(O)c1c[nH]cn1 (stereo not drawn) [4-[α-(2',6'-diethylphenyl)]hydroxymethylimidazole]",–,–,–,–,–,"minimal effective dose [7, 8]: 0.3 to 1 mg/kg; minimal effective dose [7, 9]: 0.3 to 1 mg/kg"
CCc1ccccc1C(O)c1c[nH]cn1 (stereo not drawn) [4-[α-(2'-Ethylphenyl)]hydroxymethylimidazole],–,++,73%,++,0,Analgesic activity [1]: +; change in vivo at 1.5 mg/kg [1]: 300%
COc1ccccc1C(O)c1c[nH]cn1 (stereo not drawn) [4-[α-(2'-Methoxyphenyl)]hydroxymethylimidazole],–,++,69%,+,2.5,"minimal effective dose [7, 8]: 0.3 to 1 mg/kg; minimal effective dose [7, 9]: 1 mg/kg"
Cc1ccccc1C(O)c1c[nH]cn1 (stereo not drawn) [4-[α-(2'-Methylphenyl)]hydroxymethylimidazole],160 mg/kg,+,41%,++,0,prevention of the formation of ulcers ([3]; 0.5 mg/kg): prevented them partly; prevention of the formation of ulcers ([3]; 5 mg/kg): completely prevented the formation of ulcers; anti-hypertensive effect [7]: no anti-hypertensive effect was found
COc1cccc(C(O)c2c[nH]cn2)c1 (stereo not drawn) [4-[α-(3'-Methoxyphenyl)]hydroxymethylimidazole],–,++,71%,++,0,–
Cc1cccc(C(O)c2c[nH]cn2)c1 (stereo not drawn) [4-[α-(3'-Methylphenyl)]hydroxymethylimidazole],–,+,34%,++,0,–
COc1ccc(C(O)c2c[nH]cn2)cc1 (stereo not drawn) [4-[α-(4'-Methoxyphenyl)]hydroxymethylimidazole],–,–,–,+,1.9,–
Cc1ccc(C(O)c2c[nH]cn2)cc1 (stereo not drawn) [4-[α-(4'-Methylphenyl)]hydroxymethylimidazole],–,+,38%,++,0.6,–
"Cc1cccc(C)c1Cc1nc[nH]c1C [5-Methyl-4-(2',6'-dimethylbenzyl)imidazole]",27 mg/kg,–,–,–,–,prevention of the formation of ulcers ([3]; 0.5 mg/kg): partly prevented the formation of ulcers; prevention of the formation of ulcers ([3]; 5 mg/kg): prevented them completely; anti-hypertensive effect [7]: no anti-hypertensive effect was found
"Cc1cccc(C)c1C(O)c1nc[nH]c1C (stereo not drawn) [5-Methyl-4-[α-(2',6'-dimethylphenyl)]hydroxymethylimidazole]",–,+,–,+,13,inhibition in vivo at 100 mg/kg ([5]; 100 mg/kg p.o. in the rat): 52%
Cc1ccccc1C(O)c1nc[nH]c1C (stereo not drawn) [5-Methyl-4-[α-(2'-methylphenyl)]hydroxymethylimidazole],–,+,–,–,–,inhibition in vivo at 100 mg/kg ([5]; 100 mg/kg p.o. in the rat): 67%
"Cc1ccccc1C(=O)c1nc[nH]c1C [5-methyl-4-(2'-methylbenzoyl)imidazole, 5-Methyl-4-(2'-methylbenzoyl)imidazole]",–,+,–,–,–,inhibition in vivo at 100 mg/kg ([5]; 100 mg/kg p.o. in the rat): 44%
"Cc1ccccc1Cc1nc[nH]c1C [5-methyl-4-(2'-methylbenzyl)imidazole, 5-Methyl-4-(2'-methylbenzyl)imidazole]",–,+,–,–,–,inhibition in vivo at 100 mg/kg ([5]; 100 mg/kg p.o. in the rat): 44%; Analgesic activity ([6]; 30 mg/kg): +; W-number ([6]; 30 mg/kg p.o.): 43
